The assay has as its system HT-29 cells. Description: HT-29 necroptosis cell viability assay (TNF-α/SMAC mimetic/zVAD-FMK, CellTiter-Glo). Type of assay: cell-based. Particulars: Homo sapiens. In a few lines:
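Necroptosis was triggered by TNF-α (10 ng/ml), SMAC mimetic (6 μM) and zVAD-FMK (10 μM) in serum-free medium during 20 h compound exposure (10 concentrations, threefold steps) of HT-29 cells. IC50 from duplicate dose-responses uses CellTiter-Glo ATP luminescence as viability read-out.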
On the technique in general: ATP-based viability assays read luminescence as a measure of living cells.

Setting [1] is: HT-29, HT-29 necroptosis cell viability, IC50 class symbols, read-out: Activity.
Where [2] appears, read: HT-29 cells stimulated with TNF-α (10 ng/ml), SMAC mimetic (6 μM) and zVAD-FMK (10 μM), 20 hours, CellTiter-Glo ATP luminescence, geometric mean IC50 from 10 points, read-out: Activity.
Where [3] appears, read: HT-29, HT-29 necroptosis cell viability assay, class symbols for IC50, read-out: Activity.
Setting [4] is: HT-29, HT-29 cells, necroptosis induced by TNF-α/SMAC mimetic/zVAD-FMK, CellTiter-Glo, read-out: Activity (IC50 class).

The structures appear in SMILES notation. Where two headings read alike, the source gives them in different places.

As to `CC1(CN)CN(c2cc(Oc3ccc(-n4ncn(Cc5c(F)cccc5F)c4=O)cc3F)c(F)cn2)C1` [Example 399, 2-(4-((2-(3-(aminomethyl)-3-methylazetidin-1-yl)-5-fluoropyridin-4-yl)oxy)-3-fluorophenyl)-4-(2,6-difluorobenzyl)-2,4-dihydro-3H-1,2,4-triazol-3-one], under setting [1], the IC50 lay in the range of 100 to 1000 nM. As to `Cc1nc(N2C[C@H](C#N)[C@@H]2C)sc1Cc1ccc(-n2ncn(Cc3c(F)cccc3F)c2=O)cc1` [Example 63, (2S,3S)-1-(5-(4-(4-(2,6-difluorobenzyl)-5-oxo-4,5-dihydro-1H-1,2,4-triazol-1-yl)benzyl)-4-methylthiazol-2-yl)-2-methylazetidine-3-carbonitrile], the IC50 under setting [2] was < 100 nM. As for `N#CC12CC(Nc3nccc(Oc4ccc(-n5ncn(Cc6c(F)cccc6F)c5=O)cc4)c3F)(C1)C2` [Example 361, 3-((4-(4-(4-(2,6-difluorobenzyl)-5-oxo-4,5-dihydro-1H-1,2,4-triazol-1-yl)phenoxy)-3-fluoropyridin-2-yl)amino)bicyclo[1.1.1]pentane-1-carbonitrile], under setting [1], the IC50 lay within 100 to 1000 nM. Take `Cc1nc(N2CC(N)(CF)C2)sc1Oc1ccc(-n2ncn(Cc3c(F)cccc3F)c2=O)cc1F` [Example 452, 2-(4-((2-(3-amino-3-(fluoromethyl)azetidin-1-yl)-4-methylthiazol-5-yl)oxy)-3-fluorophenyl)-4-(2,6-difluorobenzyl)-2,4-dihydro-3H-1,2,4-triazol-3-one]: under setting [1], the IC50 was < 100 nM. Take `Cc1nc([C@@H](C)O)sc1Oc1ccc(-n2nc3n(c2=O)[C@H](c2ccccc2)CC3)cc1F` (single isomer, unassigned) [Example 150]: the IC50 under setting [3] was < 100 nM. With `N#CC1(CO)CN(c2cc(Oc3ccc(-n4ncn(Cc5c(F)cccc5F)c4=O)cc3)ccn2)C1` [Example 278, 1-(4-(4-(4-(2,6-difluorobenzyl)-5-oxo-4,5-dihydro-1H-1,2,4-triazol-1-yl)phenoxy)pyridin-2-yl)-3-(hydroxymethyl)azetidine-3-carbonitrile], the IC50 under setting [1] lay within 100 to 1000 nM. On the same count and under the same terms, for `Cn1ncc(N)c1Oc1ccc(-n2ncn(Cc3c(F)cccc3F)c2=O)cc1` [Example 443, 2-(4-((4-amino-1-methyl-1H-pyrazol-5-yl)oxy)phenyl)-4-(2,6-difluorobenzyl)-2,4-dihydro-3H-1,2,4-triazol-3-one] the value was 100 to 1000 nM; for `CC1(C)CC(=O)N(c2cc(Oc3ccc(-n4ncn(Cc5c(F)cccc5F)c4=O)cc3)ccn2)C1` [Example 254, 4-(2,6-difluorobenzyl)-2-(4-((2-(4,4-dimethyl-2-oxopyrrolidin-1-yl)pyridin-4-yl)oxy)phenyl)-2,4-dihydro-3H-1,2,4-triazol-3-one], 100 to 1000 nM. On the same count and under the same terms, for `CC1(C#N)CN(c2cc(Oc3ccc(-n4ncn(Cc5c(F)cccc5F)c4=O)cc3)ccn2)C1` [Example 383, 1-(4-(4-(4-(2,6-difluorobenzyl)-5-oxo-4,5-dihydro-1H-1,2,4-triazol-1-yl)phenoxy)pyridin-2-yl)-3-methylazetidine-3-carbonitrile] the value was < 100 nM.

On to `Cc1nc(N2C[C@@H](O)CC2=O)sc1Oc1ccc(-n2ncn(Cc3c(F)cccc3F)c2=O)cc1F` [Example 76, (S)-4-(2,6-difluorobenzyl)-2-(3-fluoro-4-((2-(4-hydroxy-2-oxopyrrolidin-1-yl)-4-methylthiazol-5-yl)oxy)phenyl)-2,4-dihydro-3H-1,2,4-triazol-3-one], for which, under setting [2], the IC50 was < 100 nM.

In the case of `O=C1NC2(CO1)CN(c1cc(Oc3ccc(-n4ncn(Cc5c(F)cccc5F)c4=O)cc3F)c(F)cn1)C2` [Example 656, 2-[4-[4-[4-[(2,6-difluorophenyl)methyl]-5-oxo-1,2,4-triazol-1-yl]-2-fluoro-phenoxy]-5-fluoro-2-pyridyl]-7-oxa-2,5-diazaspiro[3.4]octan-6-one], under setting [4], the IC50 was < 100 nM. For `Cc1nc(N2CC(C)(C#N)C2)cn1Cc1ccc(-n2ncn(Cc3c(F)cccc3F)c2=O)cc1` [Example 664, 1-(1-(4-(4-(2,6-difluorobenzyl)-5-oxo-4,5-dihydro-1H-1,2,4-triazol-1-yl)benzyl)-2-methyl-1H-imidazol-4-yl)-3-methylazetidine-3-carbonitrile], the IC50 under setting [4] lay within 1000 to 10000 nM. Regarding `CCOC(=O)c1noc(Oc2ccc(-n3ncn(Cc4c(F)cccc4F)c3=O)cc2F)c1C` [Example 477, ethyl 5-(4-(4-(2,6-difluorobenzyl)-5-oxo-4,5-dihydro-1H-1,2,4-triazol-1-yl)-2-fluorophenoxy)-4-methylisoxazole-3-carboxylate], under setting [1], the IC50 lay in the range of 100 to 1000 nM.

Consider `Cc1nc(C(N)=O)sc1Oc1ccc(-n2nc3n(c2=O)[C@H](c2ccccc2)CC3)cc1Cl` (single isomer, unassigned) [Example 16], for which the IC50 under setting [2] was < 100 nM.

On to `COC(=O)c1nc(C)c(Oc2ccc(-n3ncn(Cc4cc(Cl)ccn4)c3=O)cc2F)s1` [Example 575, methyl 5-(4-(4-((4-chloropyridin-2-yl)methyl)-5-oxo-4,5-dihydro-1H-1,2,4-triazol-1-yl)-2-fluorophenoxy)-4-methylthiazole-2-carboxylate], for which the IC50 under setting [3] is 1000 to 10000 nM. Regarding `Cn1nc(C(N)=O)cc1Oc1ccc(-n2nc3n(c2=O)[C@H](c2ccccc2F)C[C@@H]3F)cc1F` (single isomer, unassigned) [Example 699], under setting [2], the IC50 was < 100 nM.

In the case of `Nc1ncc(Oc2ccc(-n3ncn(Cc4c(F)cccc4F)c3=O)cc2)s1` [Example 90, 2-(4-((2-aminothiazol-5-yl)oxy)phenyl)-4-(2,6-difluorobenzyl)-2,4-dihydro-3H-1,2,4-triazol-3-one], under setting [2], the IC50 is 100 to 1000 nM.

As for `Cc1nc(C2(N)COC2)sc1Oc1ccc(-n2ncn(Cc3c(F)cccc3F)c2=O)cc1F` [Example 614, 2-(4-((2-(3-aminooxetan-3-yl)-4-methylthiazol-5-yl)oxy)-3-fluorophenyl)-4-(2,6-difluorobenzyl)-2,4-dihydro-3H-1,2,4-triazol-3-one], under setting [3], the IC50 was < 100 nM. With `CCOC1CN(c2nc(C)c(Oc3ccc(-n4ncn(Cc5c(F)cccc5F)c4=O)cc3)n2C)C1` [Example 183, 4-(2,6-difluorobenzyl)-2-(4-((2-(3-ethoxyazetidin-1-yl)-1,4-dimethyl-1H-imidazol-5-yl)oxy)phenyl)-2,4-dihydro-3H-1,2,4-triazol-3-one], the IC50 under setting [3] is < 100 nM. On the same count and under the same terms, for `Cc1c(CC(N)=O)nn(C)c1Oc1ccc(-n2ncn(Cc3c(F)cccc3F)c2=O)cc1F` [Example 143, 2-(5-(4-(4-(2,6-difluorobenzyl)-5-oxo-4,5-dihydro-1H-1,2,4-triazol-1-yl)-2-fluorophenoxy)-1,4-dimethyl-1H-pyrazol-3-yl)acetamide] the value was < 100 nM.

Take `CCOC1CN(c2nccc(Oc3ccc(-n4ncn(Cc5c(F)cccc5F)c4=O)cc3F)c2F)C1` [Example 363, 4-(2,6-difluorobenzyl)-2-(4-((2-(3-ethoxyazetidin-1-yl)-3-fluoropyridin-4-yl)oxy)-3-fluorophenyl)-2,4-dihydro-3H-1,2,4-triazol-3-one]: the IC50 under setting [1] was < 100 nM. Turning to `Cc1nc(N2C[C@@H](C#N)[C@@H]2C)sc1Oc1ccc(-n2ncn(Cc3c(F)cccc3F)c2=O)cc1` [Example 43, (2S,3R)-1-(5-(4-(4-(2,6-difluorobenzyl)-5-oxo-4,5-dihydro-1H-1,2,4-triazol-1-yl)phenoxy)-4-methylthiazol-2-yl)-2-methylazetidine-3-carbonitrile], the IC50 under setting [2] is < 100 nM.

For `Cc1ncsc1OC1CCC(n2ncn(Cc3c(F)cccc3F)c2=O)CC1` (centres unmarked) [Example 162, 4-(2,6-difluorobenzyl)-2-(4-((4-methylthiazol-5-yl)oxy)cyclohexyl)-2,4-dihydro-3H-1,2,4-triazol-3-one], under setting [3], the IC50 lay in the range of 100 to 1000 nM. `CCOC1CN(c2nccc(Oc3ccc(-n4nc(C)n(Cc5ccccc5)c4=O)cc3)c2F)C1` [Example 304, 4-benzyl-2-[4-[[2-(3-ethoxyazetidin-1-yl)-3-fluoro-4-pyridyl]oxy]phenyl]-5-methyl-1,2,4-triazol-3-one]: the IC50 under setting [1] fell in the range of 100 to 1000 nM. `Cc1cnc(N2CC(C)(C#N)C2)cc1Oc1ccc(-n2ncn(Cc3c(F)cccc3F)c2=O)cc1Cl` [Example 251, 1-(4-(2-chloro-4-(4-(2,6-difluorobenzyl)-5-oxo-4,5-dihydro-1H-1,2,4-triazol-1-yl)phenoxy)-5-methylpyridin-2-yl)-3-methylazetidine-3-carbonitrile]: the IC50 under setting [1] was < 100 nM.

With `COC1(C)CN(c2cc(Oc3ccc(-n4ncn(Cc5c(F)cccc5F)c4=O)cc3)ccn2)C1` [Example 500, 4-(2,6-difluorobenzyl)-2-(4-((2-(3-methoxy-3-methylazetidin-1-yl)pyridin-4-yl)oxy)phenyl)-2,4-dihydro-3H-1,2,4-triazol-3-one], under setting [3], the IC50 is < 100 nM.

As for `Cc1nc(C(C)(C)O)sc1Oc1ccc(-n2ncn(Cc3c(F)cccc3F)c2=O)cc1Cl` [Example 583, 2-(3-chloro-4-((2-(2-hydroxypropan-2-yl)-4-methylthiazol-5-yl)oxy)phenyl)-4-(2,6-difluorobenzyl)-2,4-dihydro-3H-1,2,4-triazol-3-one], the IC50 under setting [3] was < 100 nM. Turning to `CCOC1CN(c2cc(Oc3ccc(-n4ncn(Cc5c(F)cccc5F)c4=O)cc3Cl)c(Cl)cn2)C1` [Example 260, 2-(3-chloro-4-((5-chloro-2-(3-ethoxyazetidin-1-yl)pyridin-4-yl)oxy)phenyl)-4-(2,6-difluorobenzyl)-2,4-dihydro-3H-1,2,4-triazol-3-one], the IC50 under setting [1] was < 100 nM. For the compound `Cc1nc(N2CC(C)(N)C2)sc1Cc1ccc(-n2ncn(Cc3c(F)cccc3F)c2=O)cc1` [Example 509, 2-(4-((2-(3-amino-3-methylazetidin-1-yl)-4-methylthiazol-5-yl)methyl)phenyl)-4-(2,6-difluorobenzyl)-2,4-dihydro-3H-1,2,4-triazol-3-one], the IC50 under setting [3] is < 100 nM.

Source of the values: patent publication US20250179061A1 (SIRONAX LTD., priority 2022, published 2025).
